Results as given in PubChem BioAssay AID1996.
Values after ≈ are worked out from the molar mass of the structure shown.

Conditions: buffer; pH 7.4; 200.0 µM
For `CSCC[C@H](NC(=O)c1cccc(S(=O)(=O)N2CCCCC2)c1)c1nc2ccccc2[nH]1`, the solubility kinetic was 1.6 µg/mL (≈ 3.39 µM).
`Cc1ccc(S(=O)(=O)N2CCC[C@H]2C(=O)NCc2ccccc2Cl)cc1` showed a solubility kinetic of over 58.9 µg/mL.
In the case of `CC1(C(=O)Nc2ccc(S(=O)(=O)Nc3ncccn3)cc2)CCCC1`, the solubility kinetic is reported as over 54.1 µg/mL.
Work on `N#CC1(NC(=O)CSc2nc3ccccc3s2)CCCCC1` yielded a solubility kinetic of 46.4 µg/mL (≈ 140 µM).
`Cl.Clc1cccc(Cl)c1CSc1nnc([C@@H]2CCCN2)o1` showed a solubility kinetic of over 55 µg/mL.
`CCn1nc(C(=O)NNC(=O)C(Cc2ccccc2)NC(N)=O)c2ccccc2c1=O` (stereo not drawn) gave a solubility kinetic of over 63.4 µg/mL.
`N#Cc1cccc(NC(=O)CC2CCCC2)c1` gave a solubility kinetic of 33.1 µg/mL (≈ 145 µM).
For `Cc1ccc(CNC(=O)C2CC(=O)N(CCC(C)C)C2)cc1` (stereo not drawn), the solubility kinetic was 40.5 µg/mL (≈ 134 µM).
For `CC1Oc2ccccc2N(CC(=O)NCCN2CCOCC2)C1=O` (stereo not drawn), the solubility kinetic was over 50 µg/mL.
In the case of `CCc1c(C)nc(SCC(=O)N2CCCCC2CC)[nH]c1=O` (stereo not drawn), the solubility kinetic is reported as 44.6 µg/mL (≈ 138 µM).
Compound `O=C(Nc1c(-c2ccccc2)nc2ccccn12)c1ccccc1` has a solubility kinetic of 38.7 µg/mL (≈ 124 µM).
`CC(C)CC(=O)NC1(C(F)(F)F)NC(=O)N(c2ccccc2)C1=O` (stereo not drawn) gave a solubility kinetic of 45.8 µg/mL (≈ 133 µM).
`CC(=O)Nc1ccc(S(=O)(=O)Nc2ccc(Cl)cn2)cc1` showed a solubility kinetic of 46.3 µg/mL (≈ 142 µM).
For `CCOC(=O)C1CCN(C(=O)COC(=O)C23CC4CC(CC(C4)C2)C3)CC1`, the solubility kinetic was 50.7 µg/mL (≈ 134 µM).
Work on `C/C(=N\S(=O)(=O)c1ccc(C)cc1)N(C)C` yielded a solubility kinetic of over 36 µg/mL.
Compound `O=[N+]([O-])c1cccc(-c2noc(-c3ccco3)n2)c1` has a solubility kinetic of 1.7 µg/mL (≈ 6.61 µM).
Work on `CC(C)C(=O)N=c1sc2cccc(F)c2n1C` yielded a solubility kinetic of 13.2 µg/mL (≈ 52.3 µM).
With `C/C=C(\C)CN1CCCC(CO)(Cc2ccccc2)C1` (stereo not drawn) the solubility kinetic was 34.3 µg/mL (≈ 125 µM).
`COc1ccc(S(=O)(=O)NC2CCCC2)cc1NC(C)=O` gave a solubility kinetic of over 46.9 µg/mL.
For `CCCOc1ccc(S(=O)(=O)Nc2ccccn2)c2ccccc12`, the solubility kinetic was under 0.4 µg/mL.
In the case of `O=C(c1ccccc1)C1NC1c1ccccc1` (stereo not drawn), the solubility kinetic is reported as 26.9 µg/mL (≈ 120 µM).
`Cc1ccc(S(=O)(=O)Nc2ccsc2C#N)cc1` gave a solubility kinetic of over 41.8 µg/mL.
With `CC(=O)c1ccc(NCCC(=O)c2ccccc2)cc1` the solubility kinetic was under 0.6 µg/mL.
Compound `COC(=O)[C@H](CC(C)C)NC(=O)Nc1ccc(F)cc1` has a solubility kinetic of over 42.3 µg/mL.
For `C/C(N)=C(/C#N)C(=O)COC(=O)c1cccc(O)c1`, the solubility kinetic was over 39 µg/mL.
For `Cc1nnc(NC(=O)C2CCN(S(=O)(=O)c3ccc(F)c(F)c3)CC2)o1`, the solubility kinetic was over 58 µg/mL.
Work on `CC(=O)c1c(C)[nH]c(C(=O)OCc2csc(CC(=O)Nc3ccccc3C)n2)c1C` yielded a solubility kinetic of 4.2 µg/mL (≈ 9.87 µM).
`O=S(=O)(NCCNc1nccc(C(F)(F)F)n1)c1ccccc1` gave a solubility kinetic of 50.2 µg/mL (≈ 145 µM).
For `C=Cn1cc[n+](CC(=O)c2cccs2)c1.[Br-]`, the solubility kinetic was over 44.9 µg/mL.
`COc1ccccc1OCc1ccc(C(=O)NC2CCCCC2)o1` gave a solubility kinetic of 39.8 µg/mL (≈ 121 µM).
`COC(=O)c1ccc(N2CCN(c3ccccc3)CC2)c(N)c1` showed a solubility kinetic of 0.8 µg/mL (≈ 2.57 µM).
For `O=C(c1ccc2ncsc2c1)N1CCCC(C(F)(F)F)C1` (stereo not drawn), the solubility kinetic was over 47.1 µg/mL.
For `CC(=O)c1ccc(NC(=O)c2ccccc2-c2ccccc2C(=O)O)cc1`, the solubility kinetic was over 53.9 µg/mL.
Compound `S=C(Cc1ccc(-c2ccccc2)cc1)N1CCOCC1` has a solubility kinetic of 0.7 µg/mL (≈ 2.35 µM).
Work on `Cc1cnc(NC(=O)c2ccc(OCC3CCCO3)cc2)s1` (stereo not drawn) yielded a solubility kinetic of 7.8 µg/mL (≈ 24.5 µM).
In the case of `Cc1ccc(NC(=S)NCc2ccccc2)cc1C`, the solubility kinetic is reported as 5.1 µg/mL (≈ 18.9 µM).
With `COc1ccc(NS(=O)(=O)c2cc(N)ccc2N2CCOCC2)cc1` the solubility kinetic was 13.2 µg/mL (≈ 36.3 µM).
In the case of `COC(=O)C1SCCN1S(=O)(=O)c1ccc(Cl)cc1` (stereo not drawn), the solubility kinetic is reported as over 48.3 µg/mL.
`Cc1ccc(S(=O)(=O)N2CCOCC2)cc1C(=O)OCC(=O)c1c(N)n(C)c(=O)n(C)c1=O` showed a solubility kinetic of 38.9 µg/mL (≈ 81 µM).
Compound `Cn1c(=O)c2c(ncn2CCO)n(C)c1=O` has a solubility kinetic of over 33.6 µg/mL.
Compound `Cc1nn(CC(=O)c2ccc(Cl)s2)c(C)c1[N+](=O)[O-]` has a solubility kinetic of over 45 µg/mL.
In the case of `Cn1c(=O)n(C)c2cc(NC(=O)COc3ccc(F)cc3)ccc21`, the solubility kinetic is reported as 40.7 µg/mL (≈ 124 µM).
In the case of `CCCNc1nc2ccccc2c(=O)[nH]1`, the solubility kinetic is reported as over 30.5 µg/mL.
With `Cc1c(C(=O)O/N=C(\N)c2ccccn2)cccc1[N+](=O)[O-]` the solubility kinetic was 5.2 µg/mL (≈ 17.3 µM).
Compound `Cc1ccc(NC(=O)c2cccs2)cc1[N+](=O)[O-]` has a solubility kinetic of 2.4 µg/mL (≈ 9.15 µM).
For `Cc1ccc(NC(=O)C2CC(Cl)=CCC2C(=O)O)c([N+](=O)[O-])c1` (stereo not drawn), the solubility kinetic was over 50.8 µg/mL.
In the case of `C=CCOn1c(=O)c(-c2ccc(C)cc2)[n+]([O-])c2ccccc21`, the solubility kinetic is reported as 5.7 µg/mL (≈ 18.5 µM).
`CC(C)CCNC(=O)c1cc2c(s1)-c1ccccc1S(=O)(=O)C2` showed a solubility kinetic of 2.1 µg/mL (≈ 6.01 µM).
With `COc1nc(N(C)C)nc(N(C#N)CCOC(C)=O)n1` the solubility kinetic was over 42 µg/mL.
`COc1ccc(NC(=O)COC(=O)C2CCN(S(=O)(=O)c3cccs3)CC2)cc1OC` gave a solubility kinetic of 47.1 µg/mL (≈ 101 µM).
In the case of `CC(C)n1c(N2CCCC2)nc2c1c(=O)[nH]c(=O)n2C`, the solubility kinetic is reported as over 41.6 µg/mL.
In the case of `O=[N+]([O-])c1cccc(S(=O)(=O)NC2CC3CCC2C3)c1` (stereo not drawn), the solubility kinetic is reported as 42.8 µg/mL (≈ 144 µM).
In the case of `Cl.O=C(CN1CCCCC1)Nc1cccc(Cl)c1`, the solubility kinetic is reported as 33.6 µg/mL.
For `CC1CN(Cc2cc(=O)oc3cc(O)c(Cl)cc23)CC(C)O1` (stereo not drawn), the solubility kinetic was 41 µg/mL (≈ 127 µM).
For `O=C(CSc1nccc(=O)[nH]1)Nc1ccc2ccccc2c1`, the solubility kinetic was over 46.7 µg/mL.
With `COc1cc(OC)cc(C(=O)NN2CCOCC2)c1` the solubility kinetic was over 39.9 µg/mL.
`CCOC(=O)N1CCN(C(=O)Nc2cccc3ccccc23)CC1` showed a solubility kinetic of over 49.1 µg/mL.
`C=CCn1c(C(CC)CC)nc2ccccc21` gave a solubility kinetic of 27.9 µg/mL (≈ 122 µM).
For `O=C(COC(=O)c1cc([N+](=O)[O-])ccc1NCCO)Nc1cccnc1Cl`, the solubility kinetic was 9.1 µg/mL (≈ 23.1 µM).
For `Cc1cc(C)c(C)c(S(=O)(=O)Nc2ccccc2N2CCOCC2)c1C`, the solubility kinetic was 1.7 µg/mL (≈ 4.54 µM).
Work on `CN(c1ccccc1C(=O)NCc1ccccc1Cl)S(=O)(=O)c1ccccc1` yielded a solubility kinetic of 31.3 µg/mL (≈ 75.4 µM).
With `Cc1csc(SCC(=O)NC2CCCC2)n1` the solubility kinetic was over 38.5 µg/mL.
Work on `COc1ccc(CNC(=S)Nc2cccc(OC)c2)cc1` yielded a solubility kinetic of 41.1 µg/mL (≈ 136 µM).
`COc1cc(Oc2ccccc2)nc(N)n1` gave a solubility kinetic of over 32.6 µg/mL.
Compound `CCc1ccc(N2CC(C(=O)N3CCCCCC3)CC2=O)cc1` (stereo not drawn) has a solubility kinetic of over 47.2 µg/mL.
For `Cc1ccc(NC(=O)CNc2cc(S(=O)(=O)N3CCOCC3)ccc2N2CCOCC2)cc1S(=O)(=O)N(C)C`, the solubility kinetic was 5.3 µg/mL (≈ 9.11 µM).
`O=C(NCCC(=O)N1CCCC1)c1ccccc1Cl` gave a solubility kinetic of over 42.1 µg/mL.
Work on `CC(C)C[C@H](NC(=O)NCc1ccc(F)cc1)C(=O)O` yielded a solubility kinetic of over 42.3 µg/mL.
Compound `CN(C)S(=O)(=O)c1ccc(NC(=O)CN2CCCCCC2)cc1` has a solubility kinetic of 50.9 µg/mL (≈ 150 µM).
In the case of `Cc1ccc(S(=O)(=O)N2CCCCC2)cc1NC(=O)Cc1cccs1`, the solubility kinetic is reported as 20.6 µg/mL (≈ 54.4 µM).
`CCCSc1nc2sc3c(c2c(=O)[nH]1)CC(C)(CC)OC3` (stereo not drawn) showed a solubility kinetic of 1.5 µg/mL (≈ 4.62 µM).
In the case of `O=C(Nc1ccccc1Cl)Nc1cccnc1Cl`, the solubility kinetic is reported as 2.8 µg/mL (≈ 9.92 µM).
`Cc1noc(C)c1S(=O)(=O)Nc1ccccc1OC(F)(F)F` gave a solubility kinetic of 48.6 µg/mL (≈ 145 µM).
Compound `CC(=O)N1CCN(C(=O)c2ccc(Cl)c(S(=O)(=O)N3CC(C)OC(C)C3)c2)CC1` (stereo not drawn) has a solubility kinetic of over 66.6 µg/mL.
In the case of `CCOc1ccc(C(=O)Oc2ccc(NC(C)=O)cc2)cc1`, the solubility kinetic is reported as under 0.6 µg/mL.
`COc1ccc(NS(=O)(=O)c2cn(C)cn2)cc1` gave a solubility kinetic of over 40.1 µg/mL.
With `Cc1cc(C)c(C)c(S(=O)(=O)NCCCn2ccnc2)c1C` the solubility kinetic was 39.8 µg/mL (≈ 124 µM).
`CCOC(=O)C1=C(C)NC(C)=C(C(=O)OCC)C1c1ccco1` gave a solubility kinetic of 8.8 µg/mL (≈ 27.6 µM).
For `O=C(Nc1ccccc1)c1cn(CCBr)cn1`, the solubility kinetic was over 44.1 µg/mL.
`O=C(c1cccc(NS(=O)(=O)c2cccc(F)c2)c1)N1CCCC1` showed a solubility kinetic of 51 µg/mL (≈ 146 µM).
For `Cc1ncc([N+](=O)[O-])n1Cc1ccc(Cl)cc1`, the solubility kinetic was 34.7 µg/mL (≈ 138 µM).
`CC(=O)c1cc(CCC(=O)NC2CCCCCC2)oc1C` showed a solubility kinetic of over 43.7 µg/mL.
Compound `CN(C)C(=O)c1cc([N+](=O)[O-])ccc1O` has a solubility kinetic of over 31.5 µg/mL.
